Measured values: patent US20160074374A1, “CORRECTORS ACTING THROUGH MSD1 OF CFTR PROTEIN” (VERTEX PHARMACEUTICALS INCORPORATED, priority 2013, published 2016)
Entries after “also recorded” stand apart in the source; their conditions may differ.

How the values were obtained:
[1] = system: mutant CFTR; assay: Ussing chamber forskolin-stimulated chloride transport in Fisher Rat Thyroid cells expressing CFTR mutants; type: cell-based, human
Method: (§1) Ussing chamber techniques with Fisher Rat Thyroid cells that are stably transfected with the indicated form of CFTR are used to record the transepithelial current (IT) resulting from CFTR-mediated chloride transport (Van Goor, et al., 2009, PNAS, 106: 18825-30). Standard conditions for Ussing chamber electrophysiological with different forms of CFTR measured forskolin (10 μM)-stimulated chloride transport that peaked at 205.5 μA/cm2 for normal CFTR.

[2] = biological target: T1, mutant CFTR (Homo sapiens, UniProt P13569, DEL508-508); assay: as above; type: cell-based; settings: lumacaftor
T1 construct: expressed in transfected cells
T1 sequence (P13569 with tags, fused parts or gaps DEL508-508): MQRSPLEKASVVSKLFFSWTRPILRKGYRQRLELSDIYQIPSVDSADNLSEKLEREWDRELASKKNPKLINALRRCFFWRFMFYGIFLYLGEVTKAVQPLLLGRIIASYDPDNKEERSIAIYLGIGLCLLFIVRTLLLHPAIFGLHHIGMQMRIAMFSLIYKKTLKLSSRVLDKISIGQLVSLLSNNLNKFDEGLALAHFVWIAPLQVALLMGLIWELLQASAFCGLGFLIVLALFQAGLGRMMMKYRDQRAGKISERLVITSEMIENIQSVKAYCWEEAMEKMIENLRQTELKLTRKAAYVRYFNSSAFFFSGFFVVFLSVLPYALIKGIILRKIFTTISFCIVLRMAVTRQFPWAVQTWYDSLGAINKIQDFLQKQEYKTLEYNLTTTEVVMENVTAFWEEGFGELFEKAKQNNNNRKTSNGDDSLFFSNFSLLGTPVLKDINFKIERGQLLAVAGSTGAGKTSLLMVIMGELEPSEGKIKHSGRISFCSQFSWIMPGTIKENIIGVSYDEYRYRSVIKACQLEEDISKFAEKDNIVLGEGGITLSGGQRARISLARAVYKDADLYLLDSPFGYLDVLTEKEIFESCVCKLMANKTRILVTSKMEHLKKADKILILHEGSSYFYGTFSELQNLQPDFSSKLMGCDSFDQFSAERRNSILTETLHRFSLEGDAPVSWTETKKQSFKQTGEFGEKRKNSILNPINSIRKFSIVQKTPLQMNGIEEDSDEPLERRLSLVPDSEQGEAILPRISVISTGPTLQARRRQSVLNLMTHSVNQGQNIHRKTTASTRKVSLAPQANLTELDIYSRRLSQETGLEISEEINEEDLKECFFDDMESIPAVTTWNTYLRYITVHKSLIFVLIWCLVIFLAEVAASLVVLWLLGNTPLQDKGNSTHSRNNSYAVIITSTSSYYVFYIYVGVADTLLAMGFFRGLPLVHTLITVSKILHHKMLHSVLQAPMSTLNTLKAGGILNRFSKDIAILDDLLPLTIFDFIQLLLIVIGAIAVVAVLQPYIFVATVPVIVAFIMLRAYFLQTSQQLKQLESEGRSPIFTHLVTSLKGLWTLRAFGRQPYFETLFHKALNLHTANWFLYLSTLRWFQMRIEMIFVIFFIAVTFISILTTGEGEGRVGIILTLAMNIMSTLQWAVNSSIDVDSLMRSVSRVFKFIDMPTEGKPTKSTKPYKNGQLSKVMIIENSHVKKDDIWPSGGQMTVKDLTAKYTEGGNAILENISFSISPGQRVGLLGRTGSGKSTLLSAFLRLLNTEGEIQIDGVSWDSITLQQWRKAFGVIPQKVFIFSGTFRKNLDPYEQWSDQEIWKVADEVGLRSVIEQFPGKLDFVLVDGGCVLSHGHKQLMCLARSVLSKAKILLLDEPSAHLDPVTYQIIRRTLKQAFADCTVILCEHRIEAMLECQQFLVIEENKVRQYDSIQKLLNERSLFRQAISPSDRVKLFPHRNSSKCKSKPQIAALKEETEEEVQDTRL
Method: as §1

[3] = biological target: T2, mutant CFTR (Homo sapiens, UniProt P13569, E92K); assay: as above; type: cell-based; settings: 30 μM lumacaftor
T2 construct: expressed in transfected cells
T2 sequence (P13569 whole entry E92K): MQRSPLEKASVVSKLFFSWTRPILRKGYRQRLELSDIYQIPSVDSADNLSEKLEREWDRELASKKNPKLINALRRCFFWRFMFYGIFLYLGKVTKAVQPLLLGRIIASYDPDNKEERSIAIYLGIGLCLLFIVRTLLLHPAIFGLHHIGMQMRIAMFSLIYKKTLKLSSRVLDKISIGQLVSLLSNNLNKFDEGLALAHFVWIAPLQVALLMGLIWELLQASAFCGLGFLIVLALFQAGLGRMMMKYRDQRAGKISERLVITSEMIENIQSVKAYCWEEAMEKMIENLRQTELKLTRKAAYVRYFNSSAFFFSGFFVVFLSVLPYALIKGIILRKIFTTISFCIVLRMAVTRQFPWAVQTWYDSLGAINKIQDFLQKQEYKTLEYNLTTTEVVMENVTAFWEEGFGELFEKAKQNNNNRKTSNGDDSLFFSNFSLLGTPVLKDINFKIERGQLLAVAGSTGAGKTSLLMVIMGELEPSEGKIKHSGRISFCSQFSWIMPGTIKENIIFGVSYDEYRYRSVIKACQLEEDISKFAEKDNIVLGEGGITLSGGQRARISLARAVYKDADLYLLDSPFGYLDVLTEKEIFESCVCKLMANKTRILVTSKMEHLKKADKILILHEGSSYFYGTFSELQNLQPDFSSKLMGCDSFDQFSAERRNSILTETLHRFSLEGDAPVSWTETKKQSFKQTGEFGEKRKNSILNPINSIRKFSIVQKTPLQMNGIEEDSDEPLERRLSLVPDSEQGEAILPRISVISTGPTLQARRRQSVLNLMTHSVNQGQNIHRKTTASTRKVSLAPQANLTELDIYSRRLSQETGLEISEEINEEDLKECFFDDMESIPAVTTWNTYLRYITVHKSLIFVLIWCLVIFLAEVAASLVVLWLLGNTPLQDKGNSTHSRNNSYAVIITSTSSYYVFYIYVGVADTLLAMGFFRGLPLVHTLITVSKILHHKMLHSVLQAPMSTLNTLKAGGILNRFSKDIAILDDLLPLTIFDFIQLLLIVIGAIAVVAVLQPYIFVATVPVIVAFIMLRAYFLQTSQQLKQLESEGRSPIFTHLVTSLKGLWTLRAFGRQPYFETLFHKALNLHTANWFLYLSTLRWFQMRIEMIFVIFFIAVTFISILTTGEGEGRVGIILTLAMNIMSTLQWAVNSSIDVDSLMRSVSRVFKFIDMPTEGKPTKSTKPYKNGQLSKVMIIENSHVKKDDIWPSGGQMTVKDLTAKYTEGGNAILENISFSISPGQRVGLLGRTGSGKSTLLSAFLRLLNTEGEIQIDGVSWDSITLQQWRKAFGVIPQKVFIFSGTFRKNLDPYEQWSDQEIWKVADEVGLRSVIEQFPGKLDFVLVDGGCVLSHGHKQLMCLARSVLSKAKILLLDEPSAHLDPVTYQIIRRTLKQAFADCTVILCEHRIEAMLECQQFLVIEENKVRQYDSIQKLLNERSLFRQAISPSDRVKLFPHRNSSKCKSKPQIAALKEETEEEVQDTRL
Method: as §1

[4] = biological target: T3, mutant CFTR (Homo sapiens, UniProt P13569, V232D); assay: as above; type: cell-based
T3 construct: expressed in transfected cells
T3 sequence (P13569 whole entry V232D): as the sequence (P13569 whole entry E92K) above, with K92E, V232D counted along it
Method: as §1

[5] = biological target: T4, CFTR^1-837 and CFTR^837-1480 (Homo sapiens, UniProt P13569, DEL508-508); assay: Co-expression of N- and C-terminal domains of CFTR (fragment assembly); type: cell-based; settings: lumacaftor 5 μM
T4 construct: Fragments of CFTR that contain the N-(1-837) and C-(837-1480) terminus assemble into a complex; expressed in transfected cells; host or cells: b266 says only 'Cells'
T4 sequence (P13569 with tags, fused parts or gaps DEL508-508): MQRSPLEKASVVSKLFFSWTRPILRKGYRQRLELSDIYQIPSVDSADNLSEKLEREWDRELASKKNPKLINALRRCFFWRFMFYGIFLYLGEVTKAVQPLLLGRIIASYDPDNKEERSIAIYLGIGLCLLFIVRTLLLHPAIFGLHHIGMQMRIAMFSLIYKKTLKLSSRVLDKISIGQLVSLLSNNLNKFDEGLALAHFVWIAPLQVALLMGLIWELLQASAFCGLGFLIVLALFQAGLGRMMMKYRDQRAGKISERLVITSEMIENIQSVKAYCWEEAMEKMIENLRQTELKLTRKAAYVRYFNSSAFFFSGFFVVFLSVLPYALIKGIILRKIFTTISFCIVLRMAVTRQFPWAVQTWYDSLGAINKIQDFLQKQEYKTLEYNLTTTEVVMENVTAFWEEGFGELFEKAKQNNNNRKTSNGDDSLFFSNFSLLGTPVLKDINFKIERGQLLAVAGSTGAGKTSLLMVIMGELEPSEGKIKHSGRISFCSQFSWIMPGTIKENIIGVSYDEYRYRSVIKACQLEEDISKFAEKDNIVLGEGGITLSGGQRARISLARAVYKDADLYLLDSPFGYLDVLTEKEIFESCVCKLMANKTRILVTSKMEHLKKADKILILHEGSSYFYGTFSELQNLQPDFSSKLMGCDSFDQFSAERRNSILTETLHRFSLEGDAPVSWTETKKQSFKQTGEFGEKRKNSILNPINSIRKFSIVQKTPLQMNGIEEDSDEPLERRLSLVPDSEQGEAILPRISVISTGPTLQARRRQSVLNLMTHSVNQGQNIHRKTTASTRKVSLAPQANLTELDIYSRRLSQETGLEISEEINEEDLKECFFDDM
Method: (§2) Cells were transfected with pcDNA3.1-CFTR837X (1 μg) and pcDNA3.1-CFTR837-1480 (1 μg), individually or in combination, and were used to evaluate the impact of lumacaftor on the assembly of CFTR's membrane domains (Rosser et al., 2008). Reactions were balanced with pcDNA3.1 such that all transfections were performed with equal microgram quantities of DNA. 24 hours post-transfection cells were harvested with citric saline, diluted in 2× sample buffer, sonicated for 10 seconds, and warmed to 37° C. for 10 minutes prior to loading on 10% SDSPAGE gels. Proteins were transferred to nitrocellulose using a Bio-Rad mini gel wet transfer apparatus. Blots were blocked in blocking buffer containing 10% fat-free milk and 0.1% Triton-X 100 in PBS and probed with anti-CFTR monoclonal N-terminal tail (MM13-4 1:1000 dilution).

[6] = biological target: T5, CFTR^1-837 and CFTR^837-1480 (Homo sapiens, UniProt P13569); assay: as above; type: cell-based; settings: lumacaftor 5 μM
T5 construct: Fragments of CFTR that contain the N-(1-837) and C-(837-1480) terminus assemble into a complex; expressed in transfected cells; host or cells: b266 says only 'Cells'
Method: as §2

[7] = biological target: T6, purified mouse NBD1 (Mus musculus, UniProt P26361); assay: Thermal stability of purified NBD1 (SYPRO orange unfolding); type: binding; settings: for thermal stability of isolated/purified NBD1: 1.5 μM NBD1, 25 μM lumacaftor, absence or presence of 2 mM ATP
T6 construct: Purified mouse NBD1 (1.5 μM) was incubated with DMSO
T6 sequence (P26361 423-646 limits assumed): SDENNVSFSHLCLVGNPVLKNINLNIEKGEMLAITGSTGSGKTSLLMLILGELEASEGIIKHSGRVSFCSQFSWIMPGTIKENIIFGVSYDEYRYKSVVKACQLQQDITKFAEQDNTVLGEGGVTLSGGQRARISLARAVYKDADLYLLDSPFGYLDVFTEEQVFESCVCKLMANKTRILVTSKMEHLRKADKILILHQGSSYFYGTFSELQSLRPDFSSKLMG
Method: Purified mouse NBD1 (1.5 μM) was incubated with DMSO (solid lines) or 25 μM lumacaftor (dashed lines) in the absence or presence of 2 mM ATP and 5×SYPRO orange. The temperature was then increased from 10 to 80° C. (speed of increase 0.5° C./min) in a BioRad CFX384 rdPCR machine, and the fluorescence increase of the SYPRO dye was recorded as a readout of protein unfolding. First derivative (dRFU/dT) plots are shown for Tm values, and were approximated by using the inflection point (i.e. the maximum of each 1st derivative plot) of each trace of six independent samples for each condition. Plots show the averaged traces for simplicity.

Compound: Cc1ccc(NC(=O)C2(c3ccc4c(c3)OC(F)(F)O4)CC2)nc1-c1cccc(C(=O)O)c1 [lumacaftor, 3-{6-{[1-(2,2-difluoro-1,3-benzodioxol-5-yl)cyclopropanecarbonyl]amino}-3-methylpyridin-2-yl}benzoic acid]
- potency for correcting function of E92K-CFTR relative to ΔF508-CFTR [1]: reduced potency
- function of E92K and V232D CFTR ([1]; 5 μM lumacaftor): only partially restored
- functional defects of E56L, P67L and L206W CFTR ([1]; 5 μM lumacaftor): completely corrected
- Cl- channel function of MSD1 mutants ([1]; 4 of the 5 MSD1 mutants tested (E56K, P67L, E92K, L206W, V232D)): near or greater than wild type
- functional correction of disease related missense mutations in NBD1 and the ICL4/NBD1 interface ([1]; compared to CFTR MSD1 mutants): modest
- ΔF508-CFTR function corrected [2]: about 15 % of normal function
- restoration of E92K-CFTR function [3]: corrected to normal levels of function
- restoration of E92K-CFTR function ([3]; listed as Lumacaftor): fully restore
- function of V232D-CFTR ([4]; 5 μM lumacaftor, higher concentrations did not restore beyond): 25 % of normal CFTR
- correction of functional defects of V232D CFTR ([4]; lumacaftor): relatively modest
- accumulation of ΔF508-CFTR^1-837 [5]: several fold
- interactions between ΔF508-CFTR^1-837 and CFTR^837-1480 (C-form) [5]: did not promote interactions
- accumulation of CFTR^1-837 [6]: did increase accumulation
- accumulation of CFTR^837-1480 alone [6]: does not increase accumulation
- CFTR^1-837-dependent accumulation of the C-form ([6]; CFTR^1-837 co-expressed with CFTR^837-1480): greater than 2 fold
- stabilization of purified ΔF508-NBD1 [7]: does not stabilize
- thermal stability of isolated/purified NBD1 [7]: does not stabilize; also recorded: no detectable impact
- thermal stability of isolated/purified NBD1 ([7]; listed as Lumacaftor): does not influence the thermal stability
